# Measured values from patent US20070010538A1, “Inhibition of pathogenic processes related to tissue trauma” (priority 1998, published 2007).
# pIC50: −log10 of the molar value.
# Assays:
# collagen α1(I) mRNA = assay: Collagen α1(I) mRNA level in primary human fibroblasts; type: cell-based; conditions: tested at the level of RNA
# Description: The same protocol was used as previously. Primary human fibroblasts were treated for 1 hr with 10^−8 M Halofuginone. […] Arrays include 265 genes known to be involved in various types of cell interactions.
# cytokine TNF-α release = assay: Cytokine TNF-α release assay (MDS Panlabs); type: cell-based
# Description: (§1) The ability of Halofuginone to inhibit various biochemical processes according to a set of assays for determining the percent inhibition of specific binding or activity of particular cellular proteins is described in greater detail in Table 1 below. The assays were performed by MDS Panlabs Inc. (Bothell, […]., USA). These assays included: the inhibition of release of the cytokines IL-1β and TNF-α; and the inhibition of the transcription of NF-κB.
# NF-κB transcription = NF-κB transcription assay (MDS Panlabs); type: cell-based
# Description: as §1
# [1] = test system: collagen type I gene expression; assay: Northern blot for collagen type I gene expression in human skin fibroblasts; type: cell-based; conditions: primary culture
# Description: (§2) Next, human skin fibroblasts were taken from a subject and were maintained in primary culture. Control cells were treated with vehicle while Halofuginone-treated cells were treated with Halofuginone as previously described. The cells were then harvested and subjected to RNA extraction and Northern blot analysis for collagen type I gene expression and for cKrox gene expression.
# β3 integrin chain = assay: RT-PCR for β3 integrin chain in MDA 435 breast carcinoma cells; type: cell-based, human; conditions: MDA 435 cells, 24 h, 200 ng/ml
# Description: (§3) Therefore, the effect of Halofuginone was investigated on the expression of αv, β3 and β5 integrin subunits in the highly aggressive MDA 435 human breast carcinoma cell line. Cells were cultured in the absence (FIG. 4, lanes A & B) or presence of increasing concentrations (10-400 ng/ml) of Halofuginone for 24 h (lane C: 400 ng/ml), 48 h (lanes D-G: 10, 50, 200, and 400 ng/ml, respectively) or 72 h (FIG. 4, lane H: 400 ng/ml). Total RNA was extracted, subjected to 1.1% formaldehyde-agarose gel electrophoresis, transferred to a nylon membrane and hybridized with ^32P-labeled PCR probe corresponding to αv. […] This effect was […] at higher concentrations (200-400 ng/ml) of Halofuginone (FIG. 4, lanes F-H). Next, RT-PCR was used to analyze the effect of Halofuginone on expression of the β3 and β5 integrin chains by the MDA 435 breast carcinoma cells. […] In contrast, there was no effect on expression of the β5 mRNA. As the αvβ3 integrin complex plays an important role in tumor angiogenesis, the anti-angiogenic effect of Halofuginone may be mediated in part by its inhibition of the β3 gene expression.
# TGF β = assay: Ang II rat model: in situ hybridization of heart tissue with TGF-β1 probe; type: in vivo; conditions: rats given Ang II plus Halofuginone vs Ang II
# Description: (§4) The experimental method was as follows. Male Sprague-Dawley rats were divided into four groups. Two groups were chronically infused with Ang II at the rate of 0.150 ng/min by implanted mini-pump. This dosage regimen will induce severe cardiac fibrosis. The other two groups of rats, control rats, were injected with saline. One group of Ang II-treated rats and one control group were daily injected intraperitoneally with 16 micrograms of Halofuginone. At the end of the experimental period, the rats were sacrificed and the heart was removed and weighed. Heart samples were then hybridized with a probe for rat collagen α1(I) expression, or with a probe for TGF β1 expression. For hybridization with one of the genetic probes, the sections were deparafinized in xylene, rehydrated through a graded series of ethanol solutions, rinsed in distilled water for 5 minutes and then incubated in 2×SSC at 70° C. for 30 minutes. The sections were then rinsed in distilled water and treated with pronase, 0.125 mg/ml in 50 mM Tris-HCl, 5 mM EDTA, pH 7.5, for 10 minutes. After digestion, the slides were rinsed with distilled water, post-fixed in 10% formalin in PBS and blocked in 0.2% glycine. After blocking, the slides were rinsed in distilled water, rapidly dehydrated through graded ethanol solutions and air-dried for several hours. […]
# collagen α1(I) gene = assay: Ang II rat model: in situ hybridization of heart tissue with rat collagen α1(I) probe; type: in vivo; conditions: rats given both Halofuginone and Ang II vs Ang II alone
# Description: as §4
# H19 gene = assay: Northern blot for H19 gene expression in bladder carcinoma cell lines; type: cell-based, human; conditions: 130 ng/ml
# Description: RT112 and 5376 human bladder carcinoma cell lines were cultured in the absence and presence of Halofuginone (130 ng/ml, added 24 h or 72 h after seeding), and the expression of the H19 gene was evaluated by Northern blot analysis ([…]. et al., Arterioscler. Thromb. Vasc. Biol., Vol. 17, p. 194-202, 1997). […] Such inhibition also supports the inclusion of the inhibition of H19 gene expression as part of the extracellular matrix economy mechanism, as described previously.
# αv integrin subunit = assay: Northern blot for integrin αv mRNA in MDA 435 breast carcinoma cells; type: cell-based, human; conditions: MDA 435 cells
# Description: as §3
# cytokine IL-1β release = assay: Cytokine IL-1β release assay (MDS Panlabs); type: cell-based
# Description: as §1
# [2] = test system: Ang II-induced cardiac fibrosis; assay: Ang II-induced cardiac fibrosis in rats: histology and collagen volume quantitation (Sirius red); type: in vivo, rat
# Description: The experimental method was as follows. Male Sprague-Dawley rats were divided into four groups. Two groups were chronically infused with Ang II at the rate of 0.150 ng/min by implanted mini-pump. This dosage regimen will induce severe cardiac fibrosis. The other two groups of rats, control rats, were injected with saline. One group of Ang II-treated rats and one control group were daily injected intraperitoneally with 16 micrograms of Halofuginone. At the end of the experimental period, the rats were sacrificed and the heart was removed and weighed. Heart samples were taken for histological examination. Briefly, the tissue samples were collected into phosphate-buffered saline (PBS) and fixed overnight in 4% paraformaldehyde in PBS at 4° C. Serial 5 μm sections were prepared after the samples had been dehydrated in graded ethanol solutions, cleared in chloroform and embedded in Paraplast. Differential staining of collagenous and non-collagenous proteins was performed with 0.1% Sirius red and 0.1% fast green as a counter-stain in picric acid. This procedure stains collagen red [Gascon-Barre, M., et al., J. Histochem. Cytochem., 37:377-381, 1989]. […] Indeed, the ventricular collagen volume fraction (CVF) was increased by threefold (p<0.05) in rats treated with Ang II, compared to rats treated with either Halofuginone alone or Halofuginone plus Ang II. In addition, the ventricular CVF for control rats was identical to that for rats treated with Halofuginone alone.
# β5 integrin chain = assay: RT-PCR for β5 integrin chain in MDA 435 breast carcinoma cells; type: cell-based, human; conditions: MDA 435 cells, 24 h, 10-400 ng/ml
# Description: as §3
# [3] = test system: cell invasion through matrigel ECM; assay: Boyden chamber invasion assay; type: cell-based; conditions: data not shown
# Text: Such inhibition supports the inclusion of type IV collagenase inhibition as part of the extracellular matrix economy mechanism, in which Halofuginone inhibits undesirable pathological processes such as tumor growth, progression and metastasis, as described previously.
# [4] = test system: MMP2 (72 kDa type IV collagenase); assay: Gelatin zymography of type IV collagenase activity in T50 bladder carcinoma cell cultures; type: cell-based
# Description: Sub-confluent cell cultures were incubated for 6-24 h in serum-free DMEM. The collagenolytic activity was determined on a gelatin impregnated (1 mg/ml. Difco, Detroit, Mich.) SDS-PAGE 8% gel. Briefly, culture media samples were separated on the substrate impregnated gels under non reducing conditions, followed by 30 min incubation in 2.5% Triton X-100 (BDH, England). The gels were then incubated for 16 h at 37° C. in 50 mM Tris, 0.2 M NaCl, 5 mM CaCl2, 0.02% Brij 35 (weight/volume) at pH 7.5. At the end of incubation period, the gels were stained with 0.5% Coomassie G250 (Bio-Rad Richmond Calif.) in methanol/acetic acid/H2O (30:10:60). The intensity of the various bands was determined on a computerized densitometer (Molecular Dynamics type 300A).
# cKrox gene expression = assay: Northern blot for cKrox gene expression in human skin fibroblasts; type: cell-based; conditions: primary culture
# Description: as §2
# [5] = test system: collagen type I gene expression; assay: Northern blot for collagen type I gene expression in myometrial and leiomyosarcoma cells; type: cell-based, human; conditions: increasing concentrations, about 48 hours
# Description: Myometrial and leiomyosarcoma cells were taken from the same patient and were plated into 10 cm plates in DMEM supplemented with 10% FCS. When the cells reached 80% confluence, the medium was replaced by serum free DMEM plus 0.1% BSA for 48 hours, washed and exposed to increasing concentrations of Halofuginone in the same medium for about 48 hours at about 37° C. The cells were then harvested and subjected to RNA extraction and Northern blot analysis for collagen type I gene expression.
compound,measurement,setting,value
O=C(CC1NCCC[C@H]1O)Cn1cnc2cc(Br)c(Cl)cc2c1=O (stereo partly drawn) [Halofuginone],collagen α1(I) mRNA,collagen α1(I) mRNA,reduced
same,pIC50,cytokine TNF-α release,8.17
same,pIC50,NF-κB transcription,7.60
same,collagen type I gene expression,[1],inhibiting collagen type I gene expression
same,β3 mRNA expression,β3 integrin chain,almost complete inhibition
same,Ang II-induced increase in expression of mRNA for TGF β in rat heart,TGF β,not affected
same,expression of collagen α1(I) gene in rat heart,collagen α1(I) gene,marked reduction
same,expression of the H19 gene,H19 gene; 5376 bladder carcinoma cell line,substantial reduction
same,expression of the H19 gene,H19 gene; RT112 bladder carcinoma cell line,substantial reduction
same,αv mRNA expression (up regulation effect),αv integrin subunit; 200-400 ng/ml,minimal
same,αv mRNA expression,"αv integrin subunit; 48 h, 10 and 50 ng/ml",up regulation
same,pIC50,cytokine IL-1β release,7.50
same,Ang II-induced morphological changes in rat heart (histology),"[2]; Ang II-infused rats, 16 micrograms daily intraperitoneally",substantially inhibited
same,ventricular CVF,"[2]; Halofuginone alone, without Ang II, two week period",did not alter
same,ventricular collagen volume (CVF),"[2]; rats given both Ang II and Halofuginone vs Ang II alone, 16 micrograms daily i.p.",markedly reduced
same,β5 mRNA expression,β5 integrin chain,no effect
same,cell invasion through matrigel ECM,[3],inhibit cell invasion
same,inhibition of the activity of MMP2 (72 kDa type IV collagenase),[4]; 25 ng/ml,profound inhibition
same,inhibition of the activity of MMP2 (72 kDa type IV collagenase),[4]; 100 ng/ml,almost complete inhibition
same,cKrox gene expression,cKrox gene expression,promoted cKrox gene expression
same,collagen type I gene expression (products at 5.4 and 4.8 kb),[5],inhibited collagen type I gene expression
